# Measurements: patent US20080139664A1, “ANTI-GLYCATION AGENTS FOR PREVENTING AGE-, DIABETES-, AND SMOKING-RELATED COMPLICATIONS” (NATIONAL RESEARCH COUNCIL OF CANADA, priority 2001, published 2008)
# System: bovine serum albumin (BSA)
# Test: Fluorescamine assay of free primary amino groups of BSA incubated with D-ribose
# Type: biochemical
# Settings: free primary amino group on BSA after 5 days at 37° C.; agent at 16.8 times IC50; 64% without agent
row,Compound,Unreacted amino group
1,CNC[C@H](O)c1ccc(O)c(O)c1 [L-Epinephrine],69%
2,CC(C)NC[C@H](O)c1ccc(O)c(O)c1 [L-Isoproterenol],73%
3,NC[C@@H](O)c1ccc(O)c(O)c1 [L-Norepinephrine],70%
4,O=C1c2c(O)ccc(O)c2C(=O)c2c(NCCNCCO)ccc(NCCNCCO)c21 [Mitoxantrone],50%
5,CN1CCCN=C1/C=C/c1cccc(O)c1 [Oxantel],55%
6,Cc1cc(N)c2ccccc2c1O [Vitamin K5],51%
7,Kaempferide,49%

# Same assay, conditions: in words
row,Compound,effect on protection of amino groups of BSA
1,CC(C)NC[C@H](O)c1ccc(O)c(O)c1 [L-Isoproterenol],protect the amino group against glycation

# System: bovine serum albumin (BSA)
# Test: SDS-PAGE assessment of BSA-BSA protein cross-links; further: key: ++: strongly suppressed; +: suppressed; −: no suppression; *: moderate acceleration of the cross-linking
# Type: biochemical
# Settings: mixtures further incubated for 4 weeks
# Protocol: Additionally, protein cross-links were semi-quantitatively assessed by SDS PAGE gel chromatography.
# Protein-protein cross-links were characterized by SDS-PAGE. The incubation mixtures used for determination of the amino groups were further incubated for 4 weeks. An aliquot of the solution was applied to Pharmacia SDS FAST gel and the proteins were stained with Coomassie blue.
row,Compound,Suppression of BSA-BSA cross-links
1,CNC[C@H](O)c1ccc(O)c(O)c1 [L-Epinephrine],++
2,CC(C)NC[C@H](O)c1ccc(O)c(O)c1 [L-Isoproterenol],+
3,NC[C@@H](O)c1ccc(O)c(O)c1 [L-Norepinephrine],+
4,O=C1c2c(O)ccc(O)c2C(=O)c2c(NCCNCCO)ccc(NCCNCCO)c21 [Mitoxantrone],+
5,CN1CCCN=C1/C=C/c1cccc(O)c1 [Oxantel],+

# System: bovine serum albumin (BSA)
# Test: not given
# Settings: not given
row,IC50,Compound
1,18 µM,CNC[C@H](O)c1ccc(O)c(O)c1 [L-Epinephrine]
2,600 µM,CN1CCCN=C1/C=C/c1cccc(O)c1 [Oxantel]

row,Compound,IC50
1,O=C1c2c(O)ccc(O)c2C(=O)c2c(NCCNCCO)ccc(NCCNCCO)c21 [Mitoxantrone],630 µM

# System: lysozyme
# Test: ESI-MS of lysozyme glycoforms after incubation with D-ribose;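 further: lysozyme incubated with D-ribose, with or without anti-glycation agents, then separated by reversed-phase HPLC and analysed by electrospray mass spectrometry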
# Settings: FIG. 2, in words; 37° C., 5 days
Compound,amount of (AP-H2O) glycoform of lysozyme,amount of AP glycoform of lysozyme
CNC[C@H](O)c1ccc(O)c(O)c1 [L-Epinephrine],reduced,reduced

# Same assay, conditions: lysozyme + 2D-ribose − 2H2O (14,569 Da); 37° C., 5 days
row,Compound,"Peak area as % of total area of all glycoforms, 14,569"
1,CNC[C@H](O)c1ccc(O)c(O)c1 [L-Epinephrine],1.7%
2,CC(C)NC[C@H](O)c1ccc(O)c(O)c1 [L-Isoproterenol],2.2%
3,NC[C@@H](O)c1ccc(O)c(O)c1 [L-Norepinephrine],1.2%
4,O=C1c2c(O)ccc(O)c2C(=O)c2c(NCCNCCO)ccc(NCCNCCO)c21 [Mitoxantrone],5.9%
5,CN1CCCN=C1/C=C/c1cccc(O)c1 [Oxantel],3.1%
6,Cc1cc(N)c2ccccc2c1O [Vitamin K5],1.6%
7,Kaempferide,3.9%

# Same assay, conditions: lysozyme + 2D-ribose − 3H2O (14,551 Da); 37° C., 5 days
row,Compound,"Peak area as % of total area of all glycoforms, 14,551"
1,CNC[C@H](O)c1ccc(O)c(O)c1 [L-Epinephrine],0.0%
2,CC(C)NC[C@H](O)c1ccc(O)c(O)c1 [L-Isoproterenol],0.8%
3,NC[C@@H](O)c1ccc(O)c(O)c1 [L-Norepinephrine],0.0%
4,O=C1c2c(O)ccc(O)c2C(=O)c2c(NCCNCCO)ccc(NCCNCCO)c21 [Mitoxantrone],3.6%
5,CN1CCCN=C1/C=C/c1cccc(O)c1 [Oxantel],2.0%
6,Cc1cc(N)c2ccccc2c1O [Vitamin K5],1.3%
7,Kaempferide,4.4%

# Same assay, conditions: lysozyme + 2D-ribose − 5H2O (14,533 Da); 37° C., 5 days
row,Compound,"Peak area as % of total area of all glycoforms, 14,533"
1,CNC[C@H](O)c1ccc(O)c(O)c1 [L-Epinephrine],0.0%
2,CC(C)NC[C@H](O)c1ccc(O)c(O)c1 [L-Isoproterenol],1.0%
3,NC[C@@H](O)c1ccc(O)c(O)c1 [L-Norepinephrine],0.0%
4,O=C1c2c(O)ccc(O)c2C(=O)c2c(NCCNCCO)ccc(NCCNCCO)c21 [Mitoxantrone],1.3%
5,CN1CCCN=C1/C=C/c1cccc(O)c1 [Oxantel],1.7%
6,Cc1cc(N)c2ccccc2c1O [Vitamin K5],1.6%
7,Kaempferide,4.0%

# Same assay, conditions: lysozyme + 2D-ribose − 6H2O (14,515 Da); 37° C., 5 days
row,Compound,"Peak area as % of total area of all glycoforms, 14,515"
1,CNC[C@H](O)c1ccc(O)c(O)c1 [L-Epinephrine],0.0%
2,CC(C)NC[C@H](O)c1ccc(O)c(O)c1 [L-Isoproterenol],0.9%
3,NC[C@@H](O)c1ccc(O)c(O)c1 [L-Norepinephrine],0.0%
4,O=C1c2c(O)ccc(O)c2C(=O)c2c(NCCNCCO)ccc(NCCNCCO)c21 [Mitoxantrone],0.8%
5,CN1CCCN=C1/C=C/c1cccc(O)c1 [Oxantel],1.1%
6,Cc1cc(N)c2ccccc2c1O [Vitamin K5],0.0%
7,Kaempferide,1.6%

# Same assay, conditions: lysozyme + D-ribose − 2H2O (14,419 Da); 37° C., 5 days
row,Compound,"Peak area as % of total area of all glycoforms, 14,419"
1,CNC[C@H](O)c1ccc(O)c(O)c1 [L-Epinephrine],2.0%
2,CC(C)NC[C@H](O)c1ccc(O)c(O)c1 [L-Isoproterenol],2.3%
3,NC[C@@H](O)c1ccc(O)c(O)c1 [L-Norepinephrine],2.4%
4,O=C1c2c(O)ccc(O)c2C(=O)c2c(NCCNCCO)ccc(NCCNCCO)c21 [Mitoxantrone],6.5%
5,CN1CCCN=C1/C=C/c1cccc(O)c1 [Oxantel],5.6%
6,Cc1cc(N)c2ccccc2c1O [Vitamin K5],3.3%
7,Kaempferide,8.9%

# Same assay, conditions: lysozyme + D-ribose − 3H2O (14,401 Da); 37° C., 5 days
row,Compound,"Peak area as % of total area of all glycoforms, 14,401"
1,CNC[C@H](O)c1ccc(O)c(O)c1 [L-Epinephrine],0.8%
2,CC(C)NC[C@H](O)c1ccc(O)c(O)c1 [L-Isoproterenol],2.5%
3,NC[C@@H](O)c1ccc(O)c(O)c1 [L-Norepinephrine],2.3%
4,O=C1c2c(O)ccc(O)c2C(=O)c2c(NCCNCCO)ccc(NCCNCCO)c21 [Mitoxantrone],1.9%
5,CN1CCCN=C1/C=C/c1cccc(O)c1 [Oxantel],3.7%
6,Cc1cc(N)c2ccccc2c1O [Vitamin K5],0.0%
7,Kaempferide,5.4%

# Same assay, conditions: lysozyme + D-ribose − H2O (14,437 Da); 37° C., 5 days
row,Compound,"Peak area as % of total area of all glycoforms, 14,437"
1,CNC[C@H](O)c1ccc(O)c(O)c1 [L-Epinephrine],15.3%
2,CC(C)NC[C@H](O)c1ccc(O)c(O)c1 [L-Isoproterenol],16.5%
3,NC[C@@H](O)c1ccc(O)c(O)c1 [L-Norepinephrine],12.0%
4,O=C1c2c(O)ccc(O)c2C(=O)c2c(NCCNCCO)ccc(NCCNCCO)c21 [Mitoxantrone],25.2%
5,CN1CCCN=C1/C=C/c1cccc(O)c1 [Oxantel],17.4%
6,Cc1cc(N)c2ccccc2c1O [Vitamin K5],12.2%
7,Kaempferide,18.5%

# Same assay, conditions: lysozyme + D-ribose − H2O with one carboxymethylated Lys residue (14,496 Da); 37° C., 5 days
row,Compound,"Peak area as % of total area of all glycoforms, 14,496"
1,CNC[C@H](O)c1ccc(O)c(O)c1 [L-Epinephrine],1.0%
2,CC(C)NC[C@H](O)c1ccc(O)c(O)c1 [L-Isoproterenol],1.4%
3,NC[C@@H](O)c1ccc(O)c(O)c1 [L-Norepinephrine],0.9%
4,O=C1c2c(O)ccc(O)c2C(=O)c2c(NCCNCCO)ccc(NCCNCCO)c21 [Mitoxantrone],1.0%
5,CN1CCCN=C1/C=C/c1cccc(O)c1 [Oxantel],1.7%
6,Cc1cc(N)c2ccccc2c1O [Vitamin K5],0.0%
7,Kaempferide,0.0%

# Same assay, conditions: lysozyme with one carboxymethylated Lys residue (14,364 Da); 37° C., 5 days
row,Compound,"Peak area as % of total area of all glycoforms, 14,364"
1,CNC[C@H](O)c1ccc(O)c(O)c1 [L-Epinephrine],4.8%
2,CC(C)NC[C@H](O)c1ccc(O)c(O)c1 [L-Isoproterenol],5.3%
3,NC[C@@H](O)c1ccc(O)c(O)c1 [L-Norepinephrine],5.3%
4,O=C1c2c(O)ccc(O)c2C(=O)c2c(NCCNCCO)ccc(NCCNCCO)c21 [Mitoxantrone],1.6%
5,CN1CCCN=C1/C=C/c1cccc(O)c1 [Oxantel],5.4%
6,Cc1cc(N)c2ccccc2c1O [Vitamin K5],4.9%
7,Kaempferide,2.5%

# Same assay, conditions: unmodified lysozyme (14,305 Da); 37° C., 5 days
row,Compound,"Peak area as % of total area of all glycoforms, 14,305"
1,CNC[C@H](O)c1ccc(O)c(O)c1 [L-Epinephrine],74.5%
2,CC(C)NC[C@H](O)c1ccc(O)c(O)c1 [L-Isoproterenol],67.0%
3,NC[C@@H](O)c1ccc(O)c(O)c1 [L-Norepinephrine],75.9%
4,O=C1c2c(O)ccc(O)c2C(=O)c2c(NCCNCCO)ccc(NCCNCCO)c21 [Mitoxantrone],49.8%
5,CN1CCCN=C1/C=C/c1cccc(O)c1 [Oxantel],57.7%
6,Cc1cc(N)c2ccccc2c1O [Vitamin K5],75.1%
7,Kaempferide,46.7%

# System: bovine serum albumin (BSA)
# Test: Maillard fluorescence-based assay of AGEs formation, IC50 determination (BSA + D-ribose)
# Settings: inhibition of Maillard fluorescence development; 0.075 mM BSA, 50 mM D-ribose, 37° C., 5 days
row,Compound,IC50
1,Cc1cc(N)c2ccccc2c1O [Vitamin K5],90 µM
2,Kaempferide,280 µM
